Results taken from PubChem BioAssay AID720547 (The Scripps Research Institute Molecular Screening Center, 2013).
Activity calls are given as the source filed them.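 How the source made its calls: active means compound flagged as a likely artifact in this counterscreen, with IC50 of 10 µM or lower; inactive means IC50 above 10 µM.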

The compounds below were run on HEK293 Gal4-VP16 luciferase reporter counterscreen, luminescence (assay: VP16-driven transactivation reporter suppression potency – cell-based, luminescence, HEK293, counter-screen for COUP-TFII inhibitor project, dose response (AID 720547);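 further: potency for lowering the luciferase signal driven by Gal4-VP16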).
In the case of Cc1nc2c(-c3ccccc3)cnn2c(N)c1-c1ccccc1, the IC50 is reported as 59.7 µM (inactive).
With CC1C(OC(=O)CCC(=O)NC(C)(C)CO)O[C@H]2OC3(C)CC[C@H]4[C@H](C)CCC1C24OO3 (some centres undefined) the IC50 was > 85.4 µM (inactive).
In the case of OC[C@@H]1CN(Cc2ccc(-c3ccccc3)cc2)C[C@H](n2cnc3c(NCc4ccc(F)cc4)ncnc32)O1, the IC50 is reported as 83.4 µM (inactive).
In the case of O=S(=O)(NCC1CCCO1)c1ccc(-c2ccc(S(=O)(=O)NCC3CCCO3)cc2)cc1 (centres undefined), the IC50 is reported as > 85.4 µM (inactive).
In the case of CC(=O)c1c(C)[nH]c(C(=O)OCC(=O)Nc2ccc(Cl)cc2[N+](=O)[O-])c1C, the IC50 is reported as > 85.4 µM (inactive).
With CCCCCCn1ccc(=N)cc1 the IC50 was > 85.4 µM (inactive).
For CCCCn1c2c(c(=N)c3c1CCC3)CCC2, the IC50 was > 85.4 µM (inactive).
c1ccc2cc3[nH]c(CNc4nc(N5CCOCC5)nc5c4ncn5-c4ccsc4)nc3cc2c1 was tested, and the IC50 was > 85.3 µM (inactive).
With CN(C)c1cc[n+](CC(=O)c2ccc(-c3ccccc3)cc2)cc1 the IC50 was > 85.4 µM (inactive).
CC(C)OCCCNc1ncnc2c1[nH]c1ccc(F)cc12 was tested, and the IC50 was > 85.4 µM (inactive).
With CC(C)(C)c1ccc(C2CC2C(=O)N/N=C\c2ccc[nH]2)cc1 (centres undefined) the IC50 was > 85.4 µM (inactive).
With Cc1cc(NC2CCCC2)n2ncc(-c3ccccc3)c2n1 the IC50 was 62.9 µM (inactive).
With COc1ccc(C2=Nn3c([n+](C)c4ccccc43)SC2)cc1 the IC50 was > 85.4 µM (inactive).
For CCOC(=O)C1CCCN(S(=O)(=O)c2ccc(S(=O)(=O)N(CC)CC)cc2)C1 (centres undefined), the IC50 was > 85.4 µM (inactive).
In the case of CC(C)(C)c1ccc(/C=N/Nc2ccc(C(=O)O)cc2)cc1, the IC50 is reported as > 85.4 µM (inactive).
With Cc1cc(C(=O)NC2CCCc3c2cnn3-c2cccc(C)c2C)n(C)n1 (centres undefined) the IC50 was > 85.4 µM (inactive).
For COc1cccc(CN(C)C(=O)c2ccc(OCC(=O)Nc3cccc(C(F)(F)F)c3)c(OC)c2)c1, the IC50 was > 28.5 µM (inactive).
In the case of CCCCCCn1c(NCC)nc2c1c(=O)n(C)c(=O)n2C, the IC50 is reported as > 85.4 µM (inactive).
O=C(c1cccs1)C1CCN(c2ncnc3sccc23)CC1 was tested, and the IC50 was > 85.4 µM (inactive).
With CCN(CC)S(=O)(=O)c1cccc(NC(=O)CNc2cccc(S(=O)(=O)N3CCCC3)c2)c1 the IC50 was > 85.4 µM (inactive).
With CCOC(=O)N1CCN(C(=O)CSCC(=O)Nc2nc(-c3ccc(-c4ccccc4)cc3)cs2)CC1 the IC50 was > 28.4 µM (inactive).
For Cc1ccc(S(=O)(=O)NCc2ccncc2)c(C)c1C, the IC50 was > 85.5 µM (inactive).
In the case of Cc1cc2c(=Cc3ccc(N(C)C)cc3)c3ccccc3n2[n+]1C, the IC50 is reported as 36.5 µM (inactive).
COc1ccc(C(=O)Nc2ccccc2C(=O)N/N=C/c2ccc(O)c(OC)c2)cc1 was tested, and the IC50 was > 28.5 µM (inactive).
For CC(C)CC(NC(=O)CCCNC(=O)CCC(=O)OC1O[C@H]2OC3(C)CC[C@H]4[C@H](C)CCC(C1C)C24OO3)C(=O)O (some centres undefined), the IC50 was > 85.4 µM (inactive).
With c1ccc(C(Cc2nc(-c3ccncc3)no2)c2ccccc2)cc1 the IC50 was > 85.4 µM (inactive).
Cc1cc(C(=O)NC2CCCc3c2cnn3-c2ccc(C(C)(C)C)cc2)nn1C (centres undefined) was tested, and the IC50 was > 85.4 µM (inactive).
With S=C(NCCc1ccccc1)Nc1cccc2cnccc12 the IC50 was > 85.4 µM (inactive).
For CC(=O)c1c(C)[nH]c(C(=O)COc2cc(C)ccc2C(C)C)c1C, the IC50 was > 85.4 µM (inactive).
For CC1(C)CC(=O)C=C(c2ccc(-c3cnc4ccccc4c3)cc2)C1=O, the IC50 was 12.5 µM (inactive).
Cc1nn(C)c(C)c1NC(=O)COc1ccc(Cl)cc1Br was tested, and the IC50 was > 85.4 µM (inactive).
With CC(=O)Nc1ccccc1OCC(=O)c1cc(C)n(Cc2cccs2)c1C the IC50 was > 85.5 µM (inactive).
Cc1nc2ccccc2n1Cc1ccc(Br)cc1 was tested, and the IC50 was > 85.3 µM (inactive).
For OC[C@@H]1CN(Cc2ccc(-c3ccccc3)cc2)C[C@H](n2cnc3c(NCc4ccncc4)ncnc32)O1, the IC50 was 59.3 µM (inactive).
